# In PubChem BioAssay (NCI):
#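 Growth conditions: 96-well plates. Treatment: test compound, 48 hours, 5 concentrations. Analysis: linear interpolation between bracketing concentrations; unreached endpoints set to highest concentration. Definition used: TGI = concentration required for complete inhibition of growth.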
# Tested on: 786-0 renal
# Experiment: inhibition of tumour cell growth, NCI panel, 48 h
row,SMILES,TGI [µM]
1,Cc1ccc(S(=O)(=O)N/N=C2/C3CCC(C3)C2c2ccccc2)cc1 (configuration not stated),> 100
2,CN1N(c2ccccc2)C(=O)C2=NC=C(C(=O)c3ccccc3)C(=N)C21C (configuration not stated),> 100
3,Cc1cc(=O)[nH]c(-n2[nH]c3c(c2=O)CCCC3)n1,> 100
4,O=C1c2ccc3c4ccc5c6c(ccc(c7ccc(c2c37)C(=O)N1CCN1CCCCC1)c64)C(=O)N(CCN1CCCCC1)C5=O,> 100
5,Cc1cccc(NS(=O)(=O)c2ccc3c(c2)OCCOCCOCCOCCO3)c1,> 100

# Tested on: HT29 colon
# Experiment: inhibition of tumour cell growth, NCI panel, 48 h
row,SMILES,TGI [µM]
1,Cc1ccc(S(=O)(=O)N/N=C2/C3CCC(C3)C2c2ccccc2)cc1 (configuration not stated),> 100
2,CN1N(c2ccccc2)C(=O)C2=NC=C(C(=O)c3ccccc3)C(=N)C21C (configuration not stated),> 100
3,Cc1cc(=O)[nH]c(-n2[nH]c3c(c2=O)CCCC3)n1,> 100
4,O=C1c2ccc3c4ccc5c6c(ccc(c7ccc(c2c37)C(=O)N1CCN1CCCCC1)c64)C(=O)N(CCN1CCCCC1)C5=O,> 100
5,Cc1cccc(NS(=O)(=O)c2ccc3c(c2)OCCOCCOCCOCCO3)c1,> 100

# Tested on: OVCAR-4 ovarian
# Experiment: inhibition of tumour cell growth, NCI panel, 48 h
row,SMILES,TGI [µM]
1,Cc1ccc(S(=O)(=O)N/N=C2/C3CCC(C3)C2c2ccccc2)cc1 (configuration not stated),> 100
2,CN1N(c2ccccc2)C(=O)C2=NC=C(C(=O)c3ccccc3)C(=N)C21C (configuration not stated),> 100
3,Cc1cc(=O)[nH]c(-n2[nH]c3c(c2=O)CCCC3)n1,> 100
4,O=C1c2ccc3c4ccc5c6c(ccc(c7ccc(c2c37)C(=O)N1CCN1CCCCC1)c64)C(=O)N(CCN1CCCCC1)C5=O,> 100

# Tested on: DU-145 prostate
# Experiment: inhibition of tumour cell growth, NCI panel, 48 h
row,SMILES,TGI [µM]
1,Cc1ccc(S(=O)(=O)N/N=C2/C3CCC(C3)C2c2ccccc2)cc1 (configuration not stated),> 100
2,CN1N(c2ccccc2)C(=O)C2=NC=C(C(=O)c3ccccc3)C(=N)C21C (configuration not stated),> 100
3,Cc1cc(=O)[nH]c(-n2[nH]c3c(c2=O)CCCC3)n1,> 100
4,O=C1c2ccc3c4ccc5c6c(ccc(c7ccc(c2c37)C(=O)N1CCN1CCCCC1)c64)C(=O)N(CCN1CCCCC1)C5=O,> 100
5,Cc1cccc(NS(=O)(=O)c2ccc3c(c2)OCCOCCOCCOCCO3)c1,> 100

# Tested on: MOLT-4 leukemia
# Experiment: inhibition of tumour cell growth, NCI panel, 48 h
row,SMILES,TGI [µM]
1,Cc1ccc(S(=O)(=O)N/N=C2/C3CCC(C3)C2c2ccccc2)cc1 (configuration not stated),> 100
2,CN1N(c2ccccc2)C(=O)C2=NC=C(C(=O)c3ccccc3)C(=N)C21C (configuration not stated),> 100
3,Cc1cc(=O)[nH]c(-n2[nH]c3c(c2=O)CCCC3)n1,> 100
4,O=C1c2ccc3c4ccc5c6c(ccc(c7ccc(c2c37)C(=O)N1CCN1CCCCC1)c64)C(=O)N(CCN1CCCCC1)C5=O,> 100
5,Cc1cccc(NS(=O)(=O)c2ccc3c(c2)OCCOCCOCCOCCO3)c1,> 100

# Tested on: KM12 colon
# Experiment: inhibition of tumour cell growth, NCI panel, 48 h
row,SMILES,TGI [µM]
1,Cc1ccc(S(=O)(=O)N/N=C2/C3CCC(C3)C2c2ccccc2)cc1 (configuration not stated),> 100
2,Cc1cc(=O)[nH]c(-n2[nH]c3c(c2=O)CCCC3)n1,> 100
3,O=C1c2ccc3c4ccc5c6c(ccc(c7ccc(c2c37)C(=O)N1CCN1CCCCC1)c64)C(=O)N(CCN1CCCCC1)C5=O,> 100
4,Cc1cccc(NS(=O)(=O)c2ccc3c(c2)OCCOCCOCCOCCO3)c1,> 100

# Tested on: PC-3 prostate
# Experiment: inhibition of tumour cell growth, NCI panel, 48 h
row,SMILES,TGI [µM]
1,Cc1ccc(S(=O)(=O)N/N=C2/C3CCC(C3)C2c2ccccc2)cc1 (configuration not stated),> 100
2,CN1N(c2ccccc2)C(=O)C2=NC=C(C(=O)c3ccccc3)C(=N)C21C (configuration not stated),> 100
3,Cc1cc(=O)[nH]c(-n2[nH]c3c(c2=O)CCCC3)n1,> 100
4,O=C1c2ccc3c4ccc5c6c(ccc(c7ccc(c2c37)C(=O)N1CCN1CCCCC1)c64)C(=O)N(CCN1CCCCC1)C5=O,> 100
5,Cc1cccc(NS(=O)(=O)c2ccc3c(c2)OCCOCCOCCOCCO3)c1,> 100

# Tested on: UACC-257 melanoma
# Experiment: inhibition of tumour cell growth, NCI panel, 48 h
row,SMILES,TGI [µM]
1,Cc1ccc(S(=O)(=O)N/N=C2/C3CCC(C3)C2c2ccccc2)cc1 (configuration not stated),> 100
2,CN1N(c2ccccc2)C(=O)C2=NC=C(C(=O)c3ccccc3)C(=N)C21C (configuration not stated),> 100
3,Cc1cc(=O)[nH]c(-n2[nH]c3c(c2=O)CCCC3)n1,> 100
4,O=C1c2ccc3c4ccc5c6c(ccc(c7ccc(c2c37)C(=O)N1CCN1CCCCC1)c64)C(=O)N(CCN1CCCCC1)C5=O,> 100
5,Cc1cccc(NS(=O)(=O)c2ccc3c(c2)OCCOCCOCCOCCO3)c1,> 100

# Tested on: OVCAR-5 ovarian
# Experiment: inhibition of tumour cell growth, NCI panel, 48 h
row,SMILES,TGI [µM]
1,Cc1ccc(S(=O)(=O)N/N=C2/C3CCC(C3)C2c2ccccc2)cc1 (configuration not stated),> 100
2,CN1N(c2ccccc2)C(=O)C2=NC=C(C(=O)c3ccccc3)C(=N)C21C (configuration not stated),> 100
3,Cc1cc(=O)[nH]c(-n2[nH]c3c(c2=O)CCCC3)n1,> 100
4,O=C1c2ccc3c4ccc5c6c(ccc(c7ccc(c2c37)C(=O)N1CCN1CCCCC1)c64)C(=O)N(CCN1CCCCC1)C5=O,> 100

# Tested on: CAKI-1 renal
# Experiment: inhibition of tumour cell growth, NCI panel, 48 h
row,SMILES,TGI [µM]
1,Cc1ccc(S(=O)(=O)N/N=C2/C3CCC(C3)C2c2ccccc2)cc1 (configuration not stated),> 100
2,CN1N(c2ccccc2)C(=O)C2=NC=C(C(=O)c3ccccc3)C(=N)C21C (configuration not stated),> 100
3,Cc1cc(=O)[nH]c(-n2[nH]c3c(c2=O)CCCC3)n1,> 100
4,O=C1c2ccc3c4ccc5c6c(ccc(c7ccc(c2c37)C(=O)N1CCN1CCCCC1)c64)C(=O)N(CCN1CCCCC1)C5=O,> 100
5,Cc1cccc(NS(=O)(=O)c2ccc3c(c2)OCCOCCOCCOCCO3)c1,> 100

# Tested on: SW-620 colon
# Experiment: inhibition of tumour cell growth, NCI panel, 48 h
row,SMILES,TGI [µM]
1,Cc1ccc(S(=O)(=O)N/N=C2/C3CCC(C3)C2c2ccccc2)cc1 (configuration not stated),> 100
2,CN1N(c2ccccc2)C(=O)C2=NC=C(C(=O)c3ccccc3)C(=N)C21C (configuration not stated),> 100
3,Cc1cc(=O)[nH]c(-n2[nH]c3c(c2=O)CCCC3)n1,> 100
4,O=C1c2ccc3c4ccc5c6c(ccc(c7ccc(c2c37)C(=O)N1CCN1CCCCC1)c64)C(=O)N(CCN1CCCCC1)C5=O,> 100
5,Cc1cccc(NS(=O)(=O)c2ccc3c(c2)OCCOCCOCCOCCO3)c1,> 100

# Tested on: MALME-3M melanoma
# Experiment: inhibition of tumour cell growth, NCI panel, 48 h
row,SMILES,TGI [µM]
1,Cc1ccc(S(=O)(=O)N/N=C2/C3CCC(C3)C2c2ccccc2)cc1 (configuration not stated),> 100
2,CN1N(c2ccccc2)C(=O)C2=NC=C(C(=O)c3ccccc3)C(=N)C21C (configuration not stated),> 100
3,Cc1cc(=O)[nH]c(-n2[nH]c3c(c2=O)CCCC3)n1,> 100
4,Cc1cccc(NS(=O)(=O)c2ccc3c(c2)OCCOCCOCCOCCO3)c1,> 100

# Tested on: CCRF-CEM leukemia
# Experiment: inhibition of tumour cell growth, NCI panel, 48 h
row,SMILES,TGI [µM]
1,Cc1ccc(S(=O)(=O)N/N=C2/C3CCC(C3)C2c2ccccc2)cc1 (configuration not stated),> 100
2,CN1N(c2ccccc2)C(=O)C2=NC=C(C(=O)c3ccccc3)C(=N)C21C (configuration not stated),> 100
3,Cc1cc(=O)[nH]c(-n2[nH]c3c(c2=O)CCCC3)n1,> 100
4,O=C1c2ccc3c4ccc5c6c(ccc(c7ccc(c2c37)C(=O)N1CCN1CCCCC1)c64)C(=O)N(CCN1CCCCC1)C5=O,> 100
5,Cc1cccc(NS(=O)(=O)c2ccc3c(c2)OCCOCCOCCOCCO3)c1,> 100

# Tested on: COLO 205 colon
# Experiment: inhibition of tumour cell growth, NCI panel, 48 h
row,SMILES,TGI [µM]
1,Cc1ccc(S(=O)(=O)N/N=C2/C3CCC(C3)C2c2ccccc2)cc1 (configuration not stated),> 100
2,CN1N(c2ccccc2)C(=O)C2=NC=C(C(=O)c3ccccc3)C(=N)C21C (configuration not stated),> 100
3,Cc1cc(=O)[nH]c(-n2[nH]c3c(c2=O)CCCC3)n1,> 100
4,O=C1c2ccc3c4ccc5c6c(ccc(c7ccc(c2c37)C(=O)N1CCN1CCCCC1)c64)C(=O)N(CCN1CCCCC1)C5=O,> 100
5,Cc1cccc(NS(=O)(=O)c2ccc3c(c2)OCCOCCOCCOCCO3)c1,> 100

# Tested on: OVCAR-3 ovarian
# Experiment: inhibition of tumour cell growth, NCI panel, 48 h
row,SMILES,TGI [µM]
1,Cc1ccc(S(=O)(=O)N/N=C2/C3CCC(C3)C2c2ccccc2)cc1 (configuration not stated),> 100
